According to patent publication US9695155B2, “Herbicidal substituted pyrimidinyloxy benzene compounds” (E. I. DU PONT DE NEMOURS AND COMPANY, priority 2013, dated 2017):

Tests used:
barnyardgrass [1] = experiment: Test A preemergence; format: in vivo, Echinochloa crus-galli; settings: for Barnyardgrass plant response rating (0 to 100 scale, 0 is no effect, 100 is complete control): 125 g ai/ha; for Barnyardgrass plant response rating: 500 g ai/ha, 0 to 100 scale where 0 is no effect and 100 is complete control
Summary of the method: (§1)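 Greenhouse pot test, loam/sand soil. Formulation: non-phytotoxic solvent mix plus surfactant. Pre: directed spray onto soil after sowing. Post: plants at 1–2 leaf, 2–10 cm. Rated visually vs untreated controls at ~10 d, 0 (no effect) to 100 (complete control).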

large (Lg) crabgrass [2] = experiment: Test A preemergence; format: in vivo, Digitaria sanguinalis; settings: for Crabgrass, Large plant response rating (0 to 100 scale): 125 g ai/ha; for Crabgrass, Large plant response rating: 500 g ai/ha, 0 to 100 scale where 0 is no effect and 100 is complete control
Summary of the method: as §1

giant foxtail [3] = experiment: Test A preemergence; format: in vivo, Setaria faberii; settings: for Foxtail, Giant plant response rating (0 to 100 scale): 125 g ai/ha; for Foxtail, Giant plant response rating: 500 g ai/ha, 0 to 100 scale where 0 is no effect and 100 is complete control
Summary of the method: as §1

morningglory [4] = experiment: Test A preemergence; format: in vivo, Ipomoea spp.; settings: for Morningglory plant response rating (0 to 100 scale): 125 g ai/ha; for Morningglory plant response rating: 500 g ai/ha, 0 to 100 scale where 0 is no effect and 100 is complete control
Summary of the method: as §1

pigweed [5] = experiment: Test A preemergence; format: in vivo, Amaranthus retroflexus; settings: for Pigweed plant response rating (0 to 100 scale): 125 g ai/ha; for Pigweed plant response rating: 500 g ai/ha, 0 to 100 scale where 0 is no effect and 100 is complete control
Summary of the method: as §1

velvetleaf [6] = experiment: Test A preemergence; format: in vivo, Abutilon theophrasti; settings: for Velvetleaf plant response rating (0 to 100 scale): 125 g ai/ha; for Velvetleaf plant response rating: 500 g ai/ha, 0 to 100 scale where 0 is no effect and 100 is complete control
Summary of the method: as §1

wheat [7] = experiment: Test A preemergence; format: in vivo, Triticum aestivum; settings: for Wheat plant response rating (0 to 100 scale): 125 g ai/ha; for Wheat plant response rating: 500 g ai/ha, 0 to 100 scale where 0 is no effect and 100 is complete control
Summary of the method: as §1

corn [8] = experiment: Test A preemergence; format: in vivo, Zea mays; settings: for Corn plant response rating (0 to 100 scale): 125 g ai/ha; for Corn plant response rating: 500 g ai/ha, 0 to 100 scale where 0 is no effect and 100 is complete control
Summary of the method: as §1

barnyardgrass [9] = experiment: Test A postemergence; format: in vivo, Echinochloa crus-galli
Summary of the method: as §1

large (Lg) crabgrass [10] = experiment: Test A postemergence; format: in vivo, Digitaria sanguinalis
Summary of the method: as §1

giant foxtail [11] = experiment: Test A postemergence; format: in vivo, Setaria faberii
Summary of the method: as §1

morningglory [12] = experiment: Test A postemergence; format: in vivo, Ipomoea spp.
Summary of the method: as §1

pigweed [13] = experiment: Test A postemergence; format: in vivo, Amaranthus retroflexus
Summary of the method: as §1

velvetleaf [14] = experiment: Test A postemergence; format: in vivo, Abutilon theophrasti
Summary of the method: as §1

wheat [15] = experiment: Test A postemergence; format: in vivo, Triticum aestivum
Summary of the method: as §1

corn [16] = experiment: Test A postemergence; format: in vivo, Zea mays
Summary of the method: as §1

rice = experiment: Test B flooded paddy test; format: in vivo, Oryza sativa; settings: Flood, 250 g ai/ha; 0 to 100 scale where 0 is no effect and 100 is complete control
Summary of the method: (§2)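 Evaluation is visual, against untreated controls, 13 to 15 days after treatment. Before treatment, plants reached the 2-leaf stage; pots were then flooded 3 cm deep, compound was added to the water, and that level was maintained. Ratings run 0 to 100, with 100 meaning complete control.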

sedge, umbrella = experiment: Test B flooded paddy test; format: in vivo, Cyperus difformis; settings: Flood, 250 g ai/ha; 0 to 100 scale where 0 is no effect and 100 is complete control
Summary of the method: as §2

Heteranthera limosa = experiment: Test B flooded paddy test; format: in vivo; settings: Flood, 250 g ai/ha; 0 to 100 scale where 0 is no effect and 100 is complete control
Summary of the method: as §2

barnyardgrass [17] = experiment: Test B flooded paddy test; format: in vivo, Echinochloa crus-galli; settings: Flood, 250 g ai/ha; 0 to 100 scale where 0 is no effect and 100 is complete control
Summary of the method: as §2

[18] = 125 g ai/ha, 0 to 100 scale where 0 is no effect and 100 is complete control
[19] = 500 g ai/ha, 0 to 100 scale where 0 is no effect and 100 is complete control
[20] = 125 g ai/ha, 0 to 100 scale, 0 no effect, 100 complete control

Row | SMILES | Barnyardgrass plant response rating (0 to 100 scale, 0 is no effect, 100 is complete control) (barnyardgrass [1]) | Barnyardgrass plant response rating (barnyardgrass [1]) | Crabgrass, Large plant response rating (0 to 100 scale) (large (Lg) crabgrass [2]) | Crabgrass, Large plant response rating (large (Lg) crabgrass [2]) | Foxtail, Giant plant response rating (0 to 100 scale) (giant foxtail [3]) | Foxtail, Giant plant response rating (giant foxtail [3]) | Morningglory plant response rating (0 to 100 scale) (morningglory [4]) | Morningglory plant response rating (morningglory [4]) | Pigweed plant response rating (0 to 100 scale) (pigweed [5]) | Pigweed plant response rating (pigweed [5]) | Velvetleaf plant response rating (0 to 100 scale) (velvetleaf [6]) | Velvetleaf plant response rating (velvetleaf [6]) | Wheat plant response rating (0 to 100 scale) (wheat [7]) | Wheat plant response rating (wheat [7]) | Corn plant response rating (0 to 100 scale) (corn [8]) | Corn plant response rating (corn [8]) | Plant response rating, Barnyardgrass (barnyardgrass [9]; [19]) | Plant response rating, Crabgrass, Large (large (Lg) crabgrass [10]; [19]) | Plant response rating, Foxtail, Giant (giant foxtail [11]; [19]) | Plant response rating, Morningglory (morningglory [12]; [19]) | other results
1 | O=Cc1cccc(Oc2ncc(Cl)cn2)c1-n1cc(I)cn1 [Compound 182] | 0 | 20 | 0 | 30 | 0 | 20 | 0 | 0 | 90 | 100 | 0 | 0 | 0 | 0 | 0 | 0 | 0 | 0 | 0 | 0 | Barnyardgrass plant response rating (barnyardgrass [9]; [18]): 0; Crabgrass, Large plant response rating (large (Lg) crabgrass [10]; [18]): 0; Foxtail, Giant plant response rating (giant foxtail [11]; [18]): 0; Morningglory plant response rating (morningglory [12]; [18]): 0; Pigweed plant response rating (pigweed [13]; [18]): 30; Plant response rating, Pigweed (pigweed [13]; [19]): 90; Velvetleaf plant response rating (velvetleaf [14]; [18]): 30; Plant response rating, Velvetleaf (velvetleaf [14]; [19]): 30; Wheat plant response rating (wheat [15]; [18]): 0; Plant response rating, Wheat (wheat [15]; [19]): 0; Corn plant response rating (corn [16]; [18]): 0; Plant response rating, Corn (corn [16]; [19]): 0; Plant response rating, Rice (rice): 0; Plant response rating, Sedge, Umbrella (sedge, umbrella): 0; Plant response rating, Ducksalad (Heteranthera limosa): 0; Plant response rating, Barnyardgrass (barnyardgrass [17]): 0
2 | NN=Cc1cccc(Oc2ncc(Cl)cn2)c1-n1cc(Br)cn1 [Compound 288] | 0 | 10 | 0 | 10 | 0 | 0 | 0 | 0 | 20 | 90 | 0 | 10 | 0 | 0 | 0 | 0 | 10 | 20 | 20 | 40 | Plant response rating, Barnyardgrass (barnyardgrass [9]; [20]): 0; Plant response rating, Crabgrass, Large (large (Lg) crabgrass [10]; [20]): 10; Plant response rating, Foxtail, Giant (giant foxtail [11]; [20]): 10; Plant response rating, Morningglory (morningglory [12]; [20]): 20; Plant response rating, Pigweed (pigweed [13]; [20]): 90; Plant response rating, Pigweed (pigweed [13]; [19]): 100; Plant response rating, Velvetleaf (velvetleaf [14]; [20]): 20; Plant response rating, Velvetleaf (velvetleaf [14]; [19]): 30; Plant response rating, Wheat (wheat [15]; [20]): 0; Plant response rating, Wheat (wheat [15]; [19]): 0; Plant response rating, Corn (corn [16]; [20]): 0; Plant response rating, Corn (corn [16]; [19]): 10; Plant response rating, Rice (rice): 0; Plant response rating, Sedge, Umbrella (sedge, umbrella): 0; Plant response rating, Ducksalad (Heteranthera limosa): 0; Plant response rating, Barnyardgrass (barnyardgrass [17]): 0
